Test results as given in patent US5756488A, “Composition for improving calcium metabolism” (Kuraray Co., Ltd., priority 1995, dated 1998).

Columns and labels:
[1] = tested on: 1,25-dihydroxyvitamin D3 receptor; details: from the literature; cited from earlier work
[2] = tested on: vitamin D-binding protein; details: from the literature; cited from earlier work
Acute toxicity tests = details: in vivo
[3] = molecular target: T1, vitamin D-binding protein (Rattus norvegicus, UniProt P04276); test: Assay of affinity for vitamin D-binding protein (displacement of tritium-labeled 25-hydroxyvitamin D3, serum of vitamin D-deficient rat); details: ratio of ED50 with control = 1, for Compounds 1, 2 and 3 30% replacement values were used
T1 construct: from tissue; host or cells: serum of vitamin D-deficient rat, diluted 1:10000, protein not purified
T1 sequence (P04276 17-476): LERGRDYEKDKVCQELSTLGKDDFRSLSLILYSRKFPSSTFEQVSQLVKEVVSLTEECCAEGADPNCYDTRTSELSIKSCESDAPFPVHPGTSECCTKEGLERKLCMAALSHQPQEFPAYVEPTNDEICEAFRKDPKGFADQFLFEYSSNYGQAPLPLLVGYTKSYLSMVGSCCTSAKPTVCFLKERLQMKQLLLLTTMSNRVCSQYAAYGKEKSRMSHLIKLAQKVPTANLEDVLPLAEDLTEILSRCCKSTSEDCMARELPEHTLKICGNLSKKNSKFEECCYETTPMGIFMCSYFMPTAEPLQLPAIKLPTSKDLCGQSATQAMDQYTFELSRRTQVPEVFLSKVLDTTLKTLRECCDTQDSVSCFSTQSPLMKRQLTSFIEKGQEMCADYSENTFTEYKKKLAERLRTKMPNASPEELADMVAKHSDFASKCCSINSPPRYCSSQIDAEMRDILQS
Procedure: Assay of Affinity for Vitamin D-Binding Protein
The serum of vitamin D-deficient rat was diluted 1:10000 with 3.5 mM barbiturate buffer solution (pH 8.6) containing 0.13 M NaCl. […] Then, 500 μl of the diluted solution of vitamin D deficient rat serum was added to each culture tube, which was then subjected to vortex stirring. After incubation at 4° C. for 1 hour, 250 μL of DCC suspension was added and vortex-stirred. Each of the culture tubes was allowed to stand for 15 minutes at 4° C., and centrifuged at 3000 rpm at 4° C. for 10 minutes.

Row | Structure (SMILES) | Affinity for vitamin D-binding protein relative to 1α,25-dihydroxyvitamin D3 [3] | also measured
1 | C=C1/C(=C\C=C2/CCC[C@]3(C)[C@@H]([C@H](C)OCCC(C)(C)O)CC[C@@H]23)C[C@@H](O)C[C@@H]1O [22-oxa-1,25-dihydroxyvitamin D3] |  | Affinity for the D3 receptor relative to 1,25-dihydroxyvitamin D3 [1]: one-eighth; Affinity for vitamin D-binding protein relative to 1,25-dihydroxyvitamin D3 [2]: about one six-hundredth
2 | C=C1/C(=C\C=C2/CCC[C@]3(C)[C@@H]([C@@H](C)[C@H](C)CCC(C)(C)O)CC[C@@H]23)C[C@@H](O)C[C@@H]1O [Compound 1, (20S,22R)-22-methyl-1α,25-dihydroxyvitamin D3] | 1/500 and lowest affinity | Toxicity in acute toxicity tests (Acute toxicity tests): low toxicity; Affinity for vitamin D-binding protein relative to 1α,25-dihydroxyvitamin D3 ([3]; listed as (20S,22R)-22-methyl-1α,25-dihydroxyvitamin D3): one five-hundredth and low

More lines, main results first:

Row | Affinity for vitamin D-binding protein relative to 1α,25-dihydroxyvitamin D3 [3] | Structure (SMILES) | also measured
3 | 1/500 | C=C1/C(=C\C=C2/CCC[C@]3(C)[C@@H]([C@@H](C)[C@@H](C)CCC(C)(C)O)CC[C@@H]23)C[C@@H](O)C[C@@H]1O [Compound 2, (20S,22S)-22-methyl-1α,25-dihydroxyvitamin D3] | 
4 | 1/220 | C=C1/C(=C\C=C2/CCC[C@]3(C)[C@@H]([C@H](C)[C@H](C)CCC(C)(C)O)CC[C@@H]23)C[C@@H](O)C[C@@H]1O [Compound 3, (20R,22R)-22-methyl-1α,25-dihydroxyvitamin D3] | 
5 | 2/3 | C=C1/C(=C\C=C2/CCC[C@]3(C)[C@@H]([C@H](C)[C@@H](C)CCC(C)(C)O)CC[C@@H]23)C[C@@H](O)C[C@@H]1O [Compound 4, (20R,22S)-22-methyl-1α,25-dihydroxyvitamin D3] | 
